Values joined by “and” are separate entries in the source; they are usually repeats but may differ in a detail not shown here. Equal values may be shown once.
How the values were obtained:
Male Rj: NMRI mice = experiment: Formalin paw test (late phase) in the mouse; type: in vivo
Procedure: The method described herein detects analgesic/anti-inflammatory activity, generally used to test compounds for pain relief, in particular diabetic neuropathy or nociceptive neuropathy. See Wheeler-Aceto, et al. (1991) Psychopharmacology 104: 35-44.
Mice were given an intraplantar injection of 5% formalin (25 μl) into the posterior left paw. This treatment induces paw licking in control animals. Mice were briefly observed at 1 minute intervals between 15 and 50 minutes after the injection of formalin and the number of occasions that the mice were observed licking the injected paw was recorded. There were 10 mice per group and the test was performed “blind.”
The experiment included 11 groups. Data was analyzed by comparing treated groups with vehicle control using unpaired Mann-Whitney U tests.
Gabapentin (100 mg/kg i.p.) administered under the same experimental conditions, was used as reference substance. The experiment included several groups. Data was analyzed by comparing treated groups with vehicle control using unpaired Mann-Whitney U tests.

adult mice (C57/B16) = experiment: Mesial temporal lobe epilepsy model (mice), hippocampal discharges; type: in vivo, mouse; details: 50 mg/kg for NTP-2014 and NTP-2026; 150 mg/kg for NTP-2024, NTP-2006, NTP-1007, NTP-1003
Procedure: Antiepileptic protocol: Up to eight adult mice (C57/B16) are injected with kainate (1 nmol in 50 nl) and are implanted with a bipolar electrode in the dorsal hippocampus using stereotaxic techniques under general anesthesia. […] Drug conditions are counter-balanced, the animals being used as their own controls. Digital EEG recordings are performed in freely moving animals for 20 min pre-injection and 80 min post-injection. The effects of the injected compound are compared versus vehicle injections and reference period (pre-dose). Upon completion of the experiment, standard histological analysis are performed to verify electrode location, cell losses in CA1, CA3 and hilus, as well as dentate gyrus dispersion. Only animals with all characteristics of MTLE are used in data analysis. […] The results below are normalized to the pre-dose condition for each of the treatment group including DMSO and saline vehicle controls. Doses of test article compounds were 50 mg/kg for NTP-2014 and NTP-2026 and 150 mg/kg for NTP-2024, NTP-2006, NTP-1007, and NTP-1003. Therefore the bumetanide, furosemide, piretanide, azosemide, and torsemide esters and amide analogs described herein may be used in therapeutic methods to treat seizures.

Na+K+Cl− co-transporter = molecular target: T1, Na+K+Cl− co-transporter (Rattus norvegicus, UniProt E9PTX9); experiment: Na+K+Cl− cotransporter assay, 86Rb uptake in A7r5 cells; type: cell-based; details: 10 minutes at 37° C.
T1 construct: endogenous in cells; host or cells: A7r5 cells
T1 sequence (E9PTX9 1-1203): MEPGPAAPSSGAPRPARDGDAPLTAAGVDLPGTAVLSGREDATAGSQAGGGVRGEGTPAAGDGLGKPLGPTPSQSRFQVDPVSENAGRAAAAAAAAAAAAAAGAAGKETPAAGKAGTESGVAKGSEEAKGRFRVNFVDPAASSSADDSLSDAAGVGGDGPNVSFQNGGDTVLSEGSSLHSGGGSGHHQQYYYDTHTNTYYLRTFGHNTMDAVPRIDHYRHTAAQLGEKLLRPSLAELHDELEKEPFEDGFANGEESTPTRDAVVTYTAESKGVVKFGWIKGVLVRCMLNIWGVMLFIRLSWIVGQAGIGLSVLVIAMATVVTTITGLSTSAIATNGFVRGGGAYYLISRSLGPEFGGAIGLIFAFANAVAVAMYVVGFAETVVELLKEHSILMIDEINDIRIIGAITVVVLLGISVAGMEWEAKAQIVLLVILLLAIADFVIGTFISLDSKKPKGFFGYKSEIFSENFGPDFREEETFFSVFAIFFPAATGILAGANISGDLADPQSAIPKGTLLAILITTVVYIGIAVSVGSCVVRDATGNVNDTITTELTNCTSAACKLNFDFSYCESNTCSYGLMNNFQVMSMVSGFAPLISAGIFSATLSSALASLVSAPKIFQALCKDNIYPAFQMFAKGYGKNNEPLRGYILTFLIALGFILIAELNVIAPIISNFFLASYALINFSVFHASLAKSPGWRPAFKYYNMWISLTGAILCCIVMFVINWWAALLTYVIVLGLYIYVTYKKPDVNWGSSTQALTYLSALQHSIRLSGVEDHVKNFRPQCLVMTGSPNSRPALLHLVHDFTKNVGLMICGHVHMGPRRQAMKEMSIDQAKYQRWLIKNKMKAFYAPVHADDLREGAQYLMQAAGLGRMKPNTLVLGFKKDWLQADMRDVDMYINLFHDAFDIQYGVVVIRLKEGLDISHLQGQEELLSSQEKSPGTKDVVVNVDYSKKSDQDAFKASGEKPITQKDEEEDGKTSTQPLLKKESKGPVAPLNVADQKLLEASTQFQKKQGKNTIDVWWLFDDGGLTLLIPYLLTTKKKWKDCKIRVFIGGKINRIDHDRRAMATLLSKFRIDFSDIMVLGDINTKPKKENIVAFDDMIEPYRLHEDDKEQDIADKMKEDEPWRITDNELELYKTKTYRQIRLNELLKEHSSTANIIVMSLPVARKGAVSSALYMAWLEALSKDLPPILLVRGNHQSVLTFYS
Procedure: Na^+K^+Cl^− co-transporter activity was measured in vitro in A7r5 cells by measuring their uptake of ^86Rb (0.2 μCi) in 10 minutes at 37° C. as detected by scintillation counting. See Chassande, et al. (1988) “The Na^+/K^+/Cl^− Cotransport in C6 glioma cells. Properties and role in volume regulation.” Eur. J. Biochem. 171: 425433.

[1] = Blood levels in rat following IP administration; type: in vivo
[2] = Brain levels in rat following IP administration; type: in vivo; details: NTP-2006 100 mg/kg IP, PBx pretreated
[3] = molecular target: T2, α1β3γ2 GABAA receptor isoform (Homo sapiens, UniProt P14867+P18507+P28472); experiment: Whole-cell patch clamp, transfected HEK-293T cells; type: cell-based, rat or human; details: FIG. 36
T2 construct: expressed in transfected cells; host or cells: HEK-293T, transient transfection
Procedure: The addition of GABA to […] activates the recombinant expressed GABAA receptors, creating an ion movement through the ion channel in the GABAA receptor. The electrical current generated by the movement of chloride ions into the cells can be quantified.
HEK-293T cells were transiently transfected with rat or human GABAA receptor subunits. Whole-cell patch clamp recording was performed at −50 mV unless otherwise indicated. Test compounds was diluted from a freshly made stock in DMSO, GABA was prepared from a frozen stock. For each experiment GABA or GABA+a test compound was applied for 5 seconds, and the electrical current generated by the movement of chloride ions into the cells was measured and recorded as a trace of current versus time.
Compounds described herein (e.g., NTP-2014) were tested at high and low GABA concentrations against multiple GABAA receptor isoforms (e.g., α1β3γ2, α2β3 γ2, α3β3γ2, α3β3γ2, α4β3γ2, α5β3γ2, α6β3γ2). […] NTP-2014 inhibits the currents in the parasynaptic α4 GABAA receptor isoform in GABAergic interneurons. […]

T2 sequence (P14867 28-456): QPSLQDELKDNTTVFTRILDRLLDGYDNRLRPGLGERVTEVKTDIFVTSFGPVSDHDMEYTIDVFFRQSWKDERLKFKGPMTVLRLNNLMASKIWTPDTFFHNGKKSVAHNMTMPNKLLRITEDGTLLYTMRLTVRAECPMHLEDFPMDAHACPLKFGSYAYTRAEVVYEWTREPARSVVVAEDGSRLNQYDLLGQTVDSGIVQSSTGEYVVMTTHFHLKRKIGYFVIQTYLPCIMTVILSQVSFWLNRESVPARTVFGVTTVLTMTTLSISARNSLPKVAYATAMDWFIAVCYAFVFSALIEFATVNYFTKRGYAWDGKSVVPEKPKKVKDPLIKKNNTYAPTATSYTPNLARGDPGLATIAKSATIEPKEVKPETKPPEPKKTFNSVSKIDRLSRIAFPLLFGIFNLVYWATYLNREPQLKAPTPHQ
T2 sequence (P28472 26-473): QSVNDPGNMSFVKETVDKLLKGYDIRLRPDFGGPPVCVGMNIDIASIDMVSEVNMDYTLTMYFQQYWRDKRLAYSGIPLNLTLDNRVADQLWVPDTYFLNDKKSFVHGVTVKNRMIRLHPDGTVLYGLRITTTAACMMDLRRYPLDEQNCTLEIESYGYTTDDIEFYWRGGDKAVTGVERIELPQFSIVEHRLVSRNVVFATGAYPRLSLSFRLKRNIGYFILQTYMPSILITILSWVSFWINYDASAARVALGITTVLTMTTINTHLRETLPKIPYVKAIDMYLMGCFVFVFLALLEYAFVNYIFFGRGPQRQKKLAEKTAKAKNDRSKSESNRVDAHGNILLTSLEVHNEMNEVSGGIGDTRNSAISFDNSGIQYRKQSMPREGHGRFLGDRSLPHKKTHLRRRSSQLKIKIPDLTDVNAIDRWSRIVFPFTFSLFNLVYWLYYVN
T2 sequence (P18507 40-475): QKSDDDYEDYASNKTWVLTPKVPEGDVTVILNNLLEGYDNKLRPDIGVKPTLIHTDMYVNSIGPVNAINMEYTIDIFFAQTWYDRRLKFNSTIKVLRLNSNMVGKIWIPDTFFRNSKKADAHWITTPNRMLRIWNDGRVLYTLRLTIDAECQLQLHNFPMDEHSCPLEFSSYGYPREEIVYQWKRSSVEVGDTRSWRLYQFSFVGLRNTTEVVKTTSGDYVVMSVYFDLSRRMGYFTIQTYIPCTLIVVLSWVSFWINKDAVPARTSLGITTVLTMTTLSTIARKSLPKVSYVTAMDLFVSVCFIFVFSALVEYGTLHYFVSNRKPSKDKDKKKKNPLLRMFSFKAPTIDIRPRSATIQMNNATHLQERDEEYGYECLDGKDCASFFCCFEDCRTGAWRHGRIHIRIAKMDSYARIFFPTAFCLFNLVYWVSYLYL

CCCCNc1cc(C(=O)OCC(=O)N(CC)CC)cc(S(N)(=O)=O)c1Oc1ccccc1 [NTP-2006, N,N-Diethylaminocarbonylmethyl 3-Aminosulfonyl-5-butylamino-4-phenoxybenzoate]
Licking Score % Pain Decrease (Male Rj: NMRI mice; 50 μmol/kg i.p.): 40.0% | Licking Score % Pain Decrease (Male Rj: NMRI mice; 250 μmol/kg i.p.): 61% | Licking Score % Pain Decrease (Male Rj: NMRI mice; 500 μmol/kg i.p.): 60% | Anti-inflammatory and analgesic effects in formalin paw test (FIG. 16) (Male Rj: NMRI mice; 50, 250, 500 μmole/kg): show anti-inflammatory and analgesic effects | Licking Score (15 to 50 minutes post-formalin injection) % Change from Control (Male Rj: NMRI mice; i.p. 30 minutes before the test, 50 μmol/kg (NTP-2006 23.9, NTP-2024 21.7, NTP-1007 19.3, NTP-2014 21, NTP-2026 23.1 mg/kg)): −40% | Licking Score (15 to 50 minutes post-formalin injection) % Change from Control (Male Rj: NMRI mice; i.p., 250 μmol/kg (NTP-2006 119, NTP-2024 108, NTP-1007 96.5, NTP-2014 105, NTP-2026 116 mg/kg)): −61% | Licking Score (15 to 50 minutes post-formalin injection) % Change from Control (Male Rj: NMRI mice; i.p., 500 μmol/kg (NTP-2006 239, NTP-2024 217, NTP-1007 193, NTP-2014 210, NTP-2026 231 mg/kg)): −60% | Cumulative duration of hippocampal discharges (adult mice (C57/B16)): decreased | Number of hippocampal discharges (adult mice (C57/B16)): decreased | inhibition at 10 µM (Na+K+Cl− co-transporter; read-out: % Inhibition of Control Values): 50% | remaining activity at 10 µM (Na+K+Cl− co-transporter; read-out: % of Control Value): 49.6% | Concentration of NTP-2006 in rat blood ([1]; NTP-2006 100 mg/kg IP, PBx pretreated, 15 m): 2.008 ng/mL and 1.728 ng/mL | Concentration of NTP-2006 in rat blood ([1]; NTP-2006 100 mg/kg IP, PBx pretreated, 1 h): BLQ (Below Limit of Quantitation (<1 ng/ml)) | Concentration of NTP-2006 in rat blood ([1]; NTP-2006 100 mg/kg IP, PBx pretreated, 2 h): BLQ (Below Limit of Quantitation (<1 ng/ml)) | Concentration of NTP-2006 in rat blood ([1]; NTP-2006 100 mg/kg IP, PBx pretreated, 4 h): BLQ (Below Limit of Quantitation (<1 ng/ml)) | Concentration of NTP-2006 in rat blood ([1]; NTP-2006 100 mg/kg IP, PBx pretreated, 6 h): BLQ (Below Limit of Quantitation (<1 ng/ml)) | Degradation to bumetanide in the blood ([1]; i.p., rats): degrades into bumetanide | concentration at 15 min ([1]; rat, whole blood, intraperitoneal, 100 mg/kg, NTP-2006 100 mg/kg IP, PBx pretreated, 15 m): 3.32 ng/mL | concentration at 30 min ([1]; rat, whole blood, intraperitoneal, 100 mg/kg, NTP-2006 100 mg/kg IP, PBx pretreated, 30 m): 3.35 ng/mL | Concentration of NTP-2006 in rat brain ([2]; 15 m): 5.259 ng/mL and 2.937 ng/mL | Concentration of NTP-2006 in rat brain ([2]; 6 h): 1.523 ng/mL and 1.572 ng/mL | concentration at 15 min ([2]; rat, brain, intraperitoneal, 100 mg/kg, 15 m): 2.95 ng/mL | concentration at 6 h ([2]; rat, brain, intraperitoneal, 100 mg/kg, 6 h): 1.88 ng/mL

CN1C(=O)CC(=O)N(c2ccccc2)c2cc(Cl)ccc21 [clobazam]
Effect on inhibitory currents in α1 subunit containing GABAA receptors [3]: increase both the amplitude and time course of inhibitory currents

CN1C(=O)CN=C(c2ccccc2)c2cc(Cl)ccc21 [diazepam]
Effect on inhibitory currents in α1 subunit containing GABAA receptors [3]: increase both the amplitude and time course of inhibitory currents

Cc1ccc(-c2nc3ccc(C)cn3c2CC(=O)N(C)C)cc1 [zolpidem]
Effect on inhibitory currents in α1 subunit containing GABAA receptors [3]: increase both the amplitude and time course of inhibitory currents

Reference: patent publication US9682928B2 (NeuroPro Therapeutics, Inc., priority 2009, dated 2017)
